These results are taken from ChEMBL document CHEMBL5726364, “Uracil derivatives as AXL and c-MET kinase inhibitors” (2017).

Molecules are shown by their SMILES. Some results are limits rather than exact numbers.

This assay has as its target T1, Tyrosine-protein kinase receptor UFO (Homo sapiens, UniProt P30530).
T1 sequence (P30530 whole entry): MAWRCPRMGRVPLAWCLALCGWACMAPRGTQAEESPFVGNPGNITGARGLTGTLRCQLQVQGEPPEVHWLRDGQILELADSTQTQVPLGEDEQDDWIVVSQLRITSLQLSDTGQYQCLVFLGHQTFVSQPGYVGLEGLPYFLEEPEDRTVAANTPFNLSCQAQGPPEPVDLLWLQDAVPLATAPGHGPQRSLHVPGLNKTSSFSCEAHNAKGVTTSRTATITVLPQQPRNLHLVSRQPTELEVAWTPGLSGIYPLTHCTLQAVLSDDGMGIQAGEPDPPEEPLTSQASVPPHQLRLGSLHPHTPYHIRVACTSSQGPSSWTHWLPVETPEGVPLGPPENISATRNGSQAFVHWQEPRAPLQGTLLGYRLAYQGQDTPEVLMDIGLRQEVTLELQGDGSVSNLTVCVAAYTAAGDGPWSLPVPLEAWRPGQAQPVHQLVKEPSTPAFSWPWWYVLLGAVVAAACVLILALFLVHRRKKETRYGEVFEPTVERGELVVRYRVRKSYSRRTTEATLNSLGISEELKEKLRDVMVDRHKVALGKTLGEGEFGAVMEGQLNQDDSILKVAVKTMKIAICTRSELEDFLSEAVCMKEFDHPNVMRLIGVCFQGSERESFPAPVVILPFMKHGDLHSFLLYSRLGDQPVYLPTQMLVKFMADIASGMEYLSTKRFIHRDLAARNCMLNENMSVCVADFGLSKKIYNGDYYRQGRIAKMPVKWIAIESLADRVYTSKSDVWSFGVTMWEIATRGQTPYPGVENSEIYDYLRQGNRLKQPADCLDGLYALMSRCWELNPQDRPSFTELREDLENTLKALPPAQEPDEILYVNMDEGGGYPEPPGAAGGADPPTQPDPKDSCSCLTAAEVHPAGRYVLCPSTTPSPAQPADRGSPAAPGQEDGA
Nature of the assay: Kinase Assay: The ability of compounds to inhibit the kinase activity of recombinant human baculovirus-expressed AXL was measured by homogeneous TRF (HTRF) using Cisbio's KinEASE assay system in white 384-well Optiplates. Assay buffer contained 1 mM DTT, 2 mM MnCl2, 2% DMSO, 50 nM supplement enzymatic buffer, and 1× enzymatic buffer. A 2× concentration of tyrosine kinase (TK) substrate-biotin/ATP mixture made in assay buffer was added to plates at 10 μL/well using the Multidrop Combi (Thermo Fisher Scientific, Waltham, Mass.). […] Compounds (100 nL), diluted in 100% DMSO on the Biomek FX, (Beckman Coulter, Inc., Brea, Calif.), were transferred to the assay plates using the Biomek FX pintool (2.5% final DMSO in assay). A 2× concentration (final=12 ng/mL) of GST-AXL (diluted in assay buffer) was added to plates at 10 uL/well using the Multidrop Combi. Plates were sealed, briefly shaken and incubated at 25° C. for 30 minutes. […] Plates were sealed, briefly shaken and incubated at 25° C. for 1 hour.

Turning to `C=CCn1cc(C(=O)Nc2ccc(Oc3ccnc4cc(OC)c(OC)cc34)c(F)c2)c(=O)n(CC=C)c1=O`, the IC50 was less than 10 nM.
With `CCn1cc(C(=O)Nc2ccc(Oc3ccnc4cc(OC)c(OC)cc34)c(Cl)c2)c(=O)n(-c2ccc(F)cc2)c1=O`, the IC50 is less than 10 nM.
On to `CCn1nc(C(=O)Nc2ccc(Oc3ccnc4cc(OC)c(OC)cc34)cn2)c(=O)n(-c2ccc(F)cc2)c1=O`, for which the IC50 was less than 10 nM.

As a reminder, the IC50 is the concentration that gives 50% inhibition.
